Assay results published in patent US8796416B1, “ACTH prophylactic treatment of renal disorders” (Questcor Pharmaceuticals, Inc, priority 2010, dated 2014).

System: melanocortin receptor
Assay: Melanocortin receptor modulation by ACTH1-39 (applicants' finding, no method given)

- melanocortin receptor modulation: pan-melanocortin receptor modulator
Substance: H-Ser-Tyr-Ser-Met-Glu-His-Phe-Arg-Trp-Gly-Lys-Pro-Val-Gly-Lys-Lys-Arg-Arg-Pro-Val-Lys-Val-Tyr-Pro-Asp-Gly-Ala-Glu-Asp-Gln-Leu-Ala-Glu-Ala-Phe-Pro-Leu-Glu-Phe-OH (H-SYSMEHFRWGKPVGKKRRPVKVYPDGAEDQLAEAFPLEF-OH) [ACTH1-39]
